The test system of one experiment is db/db mice. In words: Glucose lowering experiment, random blood glucose of db/db mice after single subcutaneous injection. It is filed as in vivo. On the procedure:
(§1) After DB/DB mice with high blood glucose were acclimated for 5-7 days, a non-fasting random blood glucose level was determined; after fasting for 12 h, a fasting blood glucose level was determined by a rapid blood glucose meter. […] Mice in each test drug group and each control group received single subcutaneous injection of each test drug or a control solution respectively, and the mice in the model control group received single subcutaneous injection of PBS buffer solution; and the experiment grouping and dosage setting conditions were shown in Table 1:
Blood glucose level: the blood was taken from the tail tip of the mice to measure the blood glucose level with a fast blood glucose meter and blood glucose test strips. […]
The glucose lowering effect of the test article was evaluated by BG (mmol/L) or AUC (mmol/L·min).
(§2) T test was used for comparison between two groups. One-way ANOVA was used for comparison among three or more groups. If there was a significant difference in F value, multiple comparisons should be performed after ANOVA analysis. All data analyses were performed with SPSS 17.0. If p<0.05, it was considered a significant difference.

A short description of experiment [1]: Effect on random body weight of db/db mice after single subcutaneous injection. It is filed as in vivo. Set-up: unit not given here. How it is done:
as §1
Body weight: after grouping the animals, the body weight was measured once a day at a fixed time period
as §2

We go through one substance from patent publication US12590134B2, “GLP-1 agonist polypeptide compound and salt thereof, synthesis method therefor and use thereof” (Sinopep-Allsino Biopharmaceutical Co., Ltd., priority 2020, dated 2026).

In the experiment with db/db mice (30 nmol/kg SC group, baseline at grouping before administration, X ± s, n = 8), Semaglutide displayed a Random blood glucose of 25.8 ± 3.9 mmol/L. Moreover, the “Blood glucose at different time after administration, 0 h” value in the experiment with db/db mice (30 nmol/kg SC single dose, 0 h) amounted to 26.8 ± 3.2 mmol/L. Moreover, in the experiment with db/db mice (30 nmol/kg SC single dose, 2 h), the “Blood glucose at different time after administration, 2 h” value is listed as 14.9 ± 4.1 mmol/L. Further, the “Blood glucose at different time after administration, 4 h” value with db/db mice (30 nmol/kg SC single dose, 4 h) is listed as 13.2 ± 3.2 mmol/L. Also, the “Blood glucose at different time after administration, 6 h” value in the experiment on db/db mice (30 nmol/kg SC single dose, 6 h) is 13.3 ± 3.7 mmol/L. For the same substance, the “Blood glucose at different time after administration, 10 h” value in the experiment on db/db mice (30 nmol/kg SC single dose, 10 h) was determined as 11.5 ± 3.7 mmol/L. The “Blood glucose at different time after administration, 24 h” value in the experiment on db/db mice (30 nmol/kg SC single dose, 24 h) is given as 12.6 ± 5.6 mmol/L. The “Blood glucose at different time after administration, 36 h” value in the experiment on db/db mice (30 nmol/kg SC single dose, 36 h) is given as 21.1 ± 4.1 mmol/L. The “Blood glucose at different time after administration, 48 h” value in the experiment with db/db mice (30 nmol/kg SC single dose, 48 h) was 21.3 ± 5.6 mmol/L. Besides, the “Blood glucose at different time after administration, 56 h” value with db/db mice (30 nmol/kg SC single dose, 56 h) is listed as 28.3 ± 4.8 mmol/L. In addition, the “Blood glucose at different time after administration, 72 h” value in the experiment on db/db mice (30 nmol/kg SC single dose, 72 h) was 32.3 ± 1.9 mmol/L. Moreover, the “Random body weight at different time after administration, Day 0” value in experiment [1] (30 nmol/kg SC single dose, Day 0) was determined as 41.62 ± 1.56. The “Random body weight at different time after administration, Day 1” value in experiment [1] (30 nmol/kg SC single dose, Day 1) worked out at 38.86 ± 1.37. Besides, in experiment [1] (30 nmol/kg SC single dose, Day 2), the “Random body weight at different time after administration, Day 2” value came to 40.56 ± 1.51. The “Random body weight at different time after administration, Day 3” value in experiment [1] (30 nmol/kg SC single dose, Day 3) stood at 41.03 ± 1.72. In experiment [1] (30 nmol/kg group, Day −1 (before administration)), the “Random body weight at different time after administration, Day −1” value turned out to be 40.24 ± 1.44. In experiment [1] (30 nmol/kg group, Day −2 (before administration), X ± s, n = 8), the “Random body weight at different time after administration, Day −2” value is reported as 41.37 ± 1.64.
